Assay results as given in patent US10259779B2 (WAYNE STATE UNIVERSITY, priority 2016, dated 2019).

Columns and labels:
recombinant HDAC8 = biological target: T1, recombinant HDAC8 (Homo sapiens, UniProt Q9BY41); test: Recombinant HDAC8 inhibition (HDAC-Glo); assay type: biochemical; settings: for activity at 0.1 µM: 1.0 × 10^−7 M; for activity at 0.2 µM: 2.0 × 10^−7 M; for activity at […]: 2.5 × 10^−8 M; for activity at 0.05 µM: 5.0 × 10^−8 M; for HDAC8 fold selectivity HDAC1: HDAC8 over HDAC1; for HDAC8 fold selectivity HDAC1 / HDAC8 fold selectivity HDAC2 / HDAC8 fold selectivity HDAC3: calculated from IC50 values; for HDAC8 fold selectivity HDAC2: HDAC8 over HDAC2; for HDAC8 fold selectivity HDAC3: HDAC8 over HDAC3; for activity at 0.0125 µM: 1.25 × 10^−8 M; for fold selectivity for HDAC8 over HDAC1, 2, and 3: HDAC8 versus HDAC1, 2, 3
T1 construct: purchased BPS Bioscience
T1 sequence (Q9BY41 1-377): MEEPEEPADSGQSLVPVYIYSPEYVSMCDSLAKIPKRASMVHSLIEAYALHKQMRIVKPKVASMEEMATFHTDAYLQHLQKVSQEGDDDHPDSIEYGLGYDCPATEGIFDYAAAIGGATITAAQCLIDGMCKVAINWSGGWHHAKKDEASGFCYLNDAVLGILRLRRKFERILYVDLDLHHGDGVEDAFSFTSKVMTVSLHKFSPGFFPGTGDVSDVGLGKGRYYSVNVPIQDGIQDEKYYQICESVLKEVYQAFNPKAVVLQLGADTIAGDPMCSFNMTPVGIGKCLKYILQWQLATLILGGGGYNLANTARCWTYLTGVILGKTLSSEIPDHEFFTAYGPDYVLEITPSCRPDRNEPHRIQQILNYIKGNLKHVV
Procedure: Inhibitory activity with HDAC8 was measured using the following procedure. In a half area 96-well white opaque plate, recombinant HDAC8 (75 ng, BPS Bioscience) was incubated in HDAC-Glo™ buffer (39 μL) with inhibitor in DMSO (1 μL), or DMSO alone (1 μL) as a control, for 15 minutes at room temperature. HDAC-Glo™ reagent (10 μL) was added to each reaction and incubated for 30 min at room temperature. Luminescent signal was measured 30 minutes after adding the substrate reagent using a Geniosplus Fluorimeter (Tecan) at optimal gain. To determine IC50, the luminescent signal was first background corrected with the signal from a background control reaction where no HDAC8 enzyme was added.

HDAC2 = HDAC2 (Homo sapiens, UniProt Q92769); test: ELISA-based HDAC activity assay, HDAC2
HDAC6 = biological target: T2, HDAC6 (Homo sapiens, UniProt Q9UBN7); test: ELISA-based HDAC activity assay, HDAC6; settings: for HDAC6 fold selectivity HDAC1: HDAC6 over HDAC1; for HDAC6 fold selectivity HDAC1 / HDAC6 fold selectivity HDAC2 / HDAC6 fold selectivity HDAC3: calculated from IC50 values; for HDAC6 fold selectivity HDAC2: HDAC6 over HDAC2; for HDAC6 fold selectivity HDAC3: HDAC6 over HDAC3
T2 sequence (Q9UBN7 1-1215): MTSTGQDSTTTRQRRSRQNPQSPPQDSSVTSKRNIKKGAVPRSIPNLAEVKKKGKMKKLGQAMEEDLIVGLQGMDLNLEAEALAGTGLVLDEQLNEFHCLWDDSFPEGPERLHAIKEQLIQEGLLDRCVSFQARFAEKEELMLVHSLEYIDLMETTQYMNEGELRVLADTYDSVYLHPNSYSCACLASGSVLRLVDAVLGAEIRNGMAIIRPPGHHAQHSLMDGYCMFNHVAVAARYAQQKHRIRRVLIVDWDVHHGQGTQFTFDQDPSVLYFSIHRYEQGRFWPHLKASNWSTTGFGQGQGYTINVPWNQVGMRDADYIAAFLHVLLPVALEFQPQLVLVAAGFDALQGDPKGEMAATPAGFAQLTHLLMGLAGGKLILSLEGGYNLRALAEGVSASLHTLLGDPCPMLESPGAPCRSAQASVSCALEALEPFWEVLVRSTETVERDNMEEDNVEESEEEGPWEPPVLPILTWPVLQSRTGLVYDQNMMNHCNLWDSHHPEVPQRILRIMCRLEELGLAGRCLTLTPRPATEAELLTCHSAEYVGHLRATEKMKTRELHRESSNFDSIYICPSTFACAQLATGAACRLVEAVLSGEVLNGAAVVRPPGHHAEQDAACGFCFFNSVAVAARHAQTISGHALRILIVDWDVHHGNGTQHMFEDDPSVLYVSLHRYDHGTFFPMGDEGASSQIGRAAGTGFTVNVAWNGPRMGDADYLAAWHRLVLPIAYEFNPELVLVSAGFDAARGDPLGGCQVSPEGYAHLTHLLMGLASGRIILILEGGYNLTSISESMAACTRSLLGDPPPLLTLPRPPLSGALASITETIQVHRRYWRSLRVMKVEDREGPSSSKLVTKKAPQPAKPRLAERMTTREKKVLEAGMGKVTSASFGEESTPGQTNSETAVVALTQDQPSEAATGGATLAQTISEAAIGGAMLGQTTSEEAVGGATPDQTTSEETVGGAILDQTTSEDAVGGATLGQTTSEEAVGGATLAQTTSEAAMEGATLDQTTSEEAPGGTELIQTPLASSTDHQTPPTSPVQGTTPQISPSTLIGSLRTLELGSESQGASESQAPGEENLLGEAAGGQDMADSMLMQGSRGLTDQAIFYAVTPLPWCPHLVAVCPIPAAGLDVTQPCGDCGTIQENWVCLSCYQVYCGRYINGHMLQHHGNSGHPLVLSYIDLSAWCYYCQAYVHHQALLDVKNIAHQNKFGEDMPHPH

[1] = read-out: Deacetylase activity (%) HDAC8
[2] = read-out: Deacetylase activity (%) HDAC2
[3] = read-out: Deacetylase activity (%) HDAC6

Sequence of HDAC2 (Q92769 whole entry): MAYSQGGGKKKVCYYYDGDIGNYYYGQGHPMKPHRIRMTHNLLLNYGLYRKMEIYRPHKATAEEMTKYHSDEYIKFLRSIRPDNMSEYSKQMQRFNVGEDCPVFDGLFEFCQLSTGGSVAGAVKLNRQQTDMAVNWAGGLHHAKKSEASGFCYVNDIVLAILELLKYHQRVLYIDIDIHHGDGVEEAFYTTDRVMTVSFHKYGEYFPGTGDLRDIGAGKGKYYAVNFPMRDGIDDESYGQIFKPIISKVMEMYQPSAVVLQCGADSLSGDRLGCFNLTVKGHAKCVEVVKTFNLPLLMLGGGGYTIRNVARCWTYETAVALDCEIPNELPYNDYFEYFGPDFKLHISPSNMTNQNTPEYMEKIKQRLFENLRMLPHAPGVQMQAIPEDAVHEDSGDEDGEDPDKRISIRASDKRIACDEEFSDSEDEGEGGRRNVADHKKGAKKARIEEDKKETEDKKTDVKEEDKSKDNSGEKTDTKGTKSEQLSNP

CCC(CCCC(=O)Nc1ccccc1)CCC(=O)NO (racemic) [Compound 1b, 4-ethyl-N^1-hydroxy-N^8-phenyloctanediamide]
IC50 (recombinant HDAC8): 130 ± 3 nM | activity at 0.1 µM (recombinant HDAC8; [1]): 55 ± 2% | activity at 0.2 µM (recombinant HDAC8; [1]): 39 ± 1% | activity at […] (recombinant HDAC8; [1]): 83 ± 2% | activity at 0.4 µM (recombinant HDAC8; 4.0 × 10^−7 M, read-out: Deacetylase activity (%) HDAC8): 25 ± 1% | activity at 0.05 µM (recombinant HDAC8; [1]): 73 ± 2% | HDAC8 fold selectivity HDAC1 (recombinant HDAC8): 34 fold | HDAC8 fold selectivity HDAC2 (recombinant HDAC8): 38 fold | HDAC8 fold selectivity HDAC3 (recombinant HDAC8): 46 fold | IC50 (HDAC2): 4.9 µM | activity at 1 µM (HDAC2; [2]): 86 ± 2% | activity at 2 µM (HDAC2; [2]): 69 ± 1% | activity at 4 µM (HDAC2; [2]): 59 ± 2% | activity at 8 µM (HDAC2; [2]): 34 ± 7% | activity at 16 µM (HDAC2; [2]): 23 ± 2% | IC50 (HDAC6): 160 ± 10 nM | HDAC6 fold selectivity HDAC1 (HDAC6): 28 fold | HDAC6 fold selectivity HDAC2 (HDAC6): 31 fold | HDAC6 fold selectivity HDAC3 (HDAC6): 38 fold | activity at 0.05 µM (HDAC6; [3]): 74 ± 7% | activity at 0.1 µM (HDAC6; [3]): 61 ± 6% | activity at 0.2 µM (HDAC6; [3]): 43 ± 5% | activity at 0.4 µM (HDAC6; [3]): 33 ± 3% | activity at […] (HDAC6; [3]): 80 ± 8%

CCCCCCC(CCCC(=O)Nc1ccccc1)CCC(=O)NO (racemic) [Compound 1d, 4-hexyl-N^1-hydroxy-N^8-phenyloctanediamide]
IC50 (recombinant HDAC8): 79 ± 3 nM | activity at 0.1 µM (recombinant HDAC8; [1]): 42 ± 4% | activity at 0.0125 µM (recombinant HDAC8; [1]): 92 ± 1% | activity at 0.2 µM (recombinant HDAC8; [1]): 27 ± 2% | activity at […] (recombinant HDAC8; [1]): 78 ± 6% | activity at 0.05 µM (recombinant HDAC8; [1]): 63 ± 4% | HDAC8 fold selectivity HDAC1 (recombinant HDAC8): 440 fold | HDAC8 fold selectivity HDAC2 (recombinant HDAC8): 480 fold | HDAC8 fold selectivity HDAC3 (recombinant HDAC8): 380 fold | fold selectivity for HDAC8 over HDAC1, 2, and 3 (recombinant HDAC8): ≥ 380 fold | IC50 (HDAC2): 38 µM | activity at 1.25 µM (HDAC2; [2]): 101 ± 2% | activity at 10 µM (HDAC2; [2]): 79 ± 6% | activity at 20 µM (HDAC2; [2]): 73 ± 2% | activity at 40 µM (HDAC2; [2]): 46 ± 6% | activity at 80 µM (HDAC2; [2]): 31 ± 2% | activity at 160 µM (HDAC2; [2]): 16 ± 1% | IC50 (HDAC6): 140 ± 10 nM | HDAC6 fold selectivity HDAC1 (HDAC6): 250 fold | HDAC6 fold selectivity HDAC2 (HDAC6): 270 fold | HDAC6 fold selectivity HDAC3 (HDAC6): 210 fold | activity at 0.05 µM (HDAC6; [3]): 75 ± 6% | activity at 0.1 µM (HDAC6; [3]): 56 ± 4% | activity at 0.2 µM (HDAC6; [3]): 42 ± 4% | activity at 0.4 µM (HDAC6; [3]): 27 ± 2% | activity at 1.25 µM (HDAC6; [3]): 21 ± 2% | activity at […] (HDAC6; [3]): 77 ± 9%

O=C(CCC(CCCC(=O)Nc1ccccc1)Cc1ccccc1)NO (racemic) [Compound 1f, 4-benzyl-N^1-hydroxy-N^8-phenyloctanediamide]
IC50 (recombinant HDAC8): 57 nM | activity at 0.1 µM (recombinant HDAC8; [1]): 34 ± 2% | activity at 0.0125 µM (recombinant HDAC8; [1]): 87 ± 4% | activity at 0.2 µM (recombinant HDAC8; [1]): 21 ± 1% | activity at […] (recombinant HDAC8; [1]): 73 ± 2% | activity at 0.05 µM (recombinant HDAC8; [1]): 51 ± 1% | HDAC8 fold selectivity HDAC1 (recombinant HDAC8): 510 fold | HDAC8 fold selectivity HDAC2 (recombinant HDAC8): 670 fold | HDAC8 fold selectivity HDAC3 (recombinant HDAC8): 740 fold | fold selectivity for HDAC8 over HDAC1, 2, and 3 (recombinant HDAC8): ≥ 510 fold | IC50 (HDAC2): 32 µM | activity at 5 µM (HDAC2; [2]): 92 ± 4% | activity at 10 µM (HDAC2; [2]): 74 ± 4% | activity at 20 µM (HDAC2; [2]): 60 ± 1% | activity at 40 µM (HDAC2; [2]): 47 ± 1% | activity at 80 µM (HDAC2; [2]): 27 ± 5% | activity at 160 µM (HDAC2; [2]): 20 ± 1% | IC50 (HDAC6): 140 nM | HDAC6 fold selectivity HDAC1 (HDAC6): 210 fold | HDAC6 fold selectivity HDAC2 (HDAC6): 270 fold | HDAC6 fold selectivity HDAC3 (HDAC6): 300 fold | activity at 0.05 µM (HDAC6; [3]): 76 ± 5% | activity at 0.1 µM (HDAC6; [3]): 60 ± 4% | activity at 0.2 µM (HDAC6; [3]): 45 ± 5% | activity at 0.4 µM (HDAC6; [3]): 18 ± 4% | activity at 5 µM (HDAC6; [3]): 2.9 ± 0.5% | activity at […] (HDAC6; [3]): 90 ± 7%
